Results taken from patent US6627651B1, “Cyclic compounds and uses thereof” (Takeda Chemical Industries, Ltd., priority 1999, dated 2003).

Row | SMILES | melting point [°C]
1 | CN(Cc1ccc(NC(=O)C2=Cc3cc(OCc4cccnc4)ccc3S(=O)(=O)CC2)cc1)C1CCOCC1 [Compound 4, N-[4-[N-methyl-N-(tetrahydropyran-4-yl)aminomethyl]phenyl]-7-(3-pyridylmethoxy)-1,1-dioxo-2,3-dihydro-1-benzothiepine-4-carboxamide] | 225 to 229
2 | Cc1ccc(-c2ccc3cc(C(=O)Nc4ccc(CN(C)C5CCOCC5)cc4)[nH]c3c2)cc1 [Compound 23, 6-(4-methylphenyl)-N-[4-[N-methyl-N-(tetrahydropyran-4-yl)aminomethyl]phenyl]-1H-indole-2-carboxamide] | 246 to 250
3 | Cc1ccc(-c2ccc3c(c2)C=C(C(=O)NC2CCN(C)CC2)CCO3)cc1 [Compound 61, N-(1-methylpiperidin-4-yl)-7-(4-methylphenyl)-2,3-dihydro-1-benzooxepine-4-carboxamide] | 180 to 182
4 | Cc1ccc(-c2csc(/C=C/C(=O)N[C@H]3CC[C@H](CN(C)C4CCOCC4)CC3)c2)cc1 [Compound 72, (trans, E)-3-[4-(4-methylphenyl)thiophen-2-yl]-N-[4-[N-methyl-N-(tetrahydropyran-4-yl)aminomethyl]cyclohexyl]acrylamide] | 180 to 183
5 | Cc1ccc(-c2ccc3cc(C(=O)Nc4ccc(CN(C)C5CCOCC5)cc4)n(C)c3c2)cc1 [Compound 24, 1-methyl-6-(4-methylphenyl)-N-[4-[N-methyl-N-(tetrahydropyran-4-yl)aminomethyl]phenyl]-1H-indole-2-carboxamide] | 225 to 226
6 | Cc1ccc(-c2ccc3c(c2)C=C(C(=O)N[C@H]2CC[C@H](CN(C)C4CCOCC4)CC2)CCO3)cc1 [Compound 63, trans-7-(4-methylphenyl)-N-[4-[N-methyl-N-(tetrahydropyran-4-yl)aminomethyl]cyclohexyl]-2,3-dihydro-1-benzooxepine-4-carboxamide] | 144 to 146

The next lines start with the values.

Row | melting point [°C] | SMILES
7 | 185 to 187 | O=C(Nc1ccc(CN2CCCCC2)cc1)C1CCc2ccc(-c3ccccc3)cc2C1 (stereo not drawn) [Compound 82, N-[4-(piperidinomethyl)phenyl]-7-phenyl-1,2,3,4-tetrahydronaphthalene-2-carboxamide]
8 | 186 to 188 | CCOc1ccc(COc2ccc3c(c2)C=C(C(=O)Nc2ccc(CN(C)C4CCOCC4)cc2)CCS3(=O)=O)cc1OCC [Compound 122, N-[4-[[N-methyl-N-(tetrahydropyran-4-yl)amino]methyl]phenyl]-7-(3,4-diethoxybenzyloxy)-1,1-dioxo-2,3-dihydro-1-benzothiepine-4-carboxamide]
9 | 171 to 173 | O=C(Nc1ccc(CN2CCCCC2)cc1)c1cccc(OCc2cccc3ccccc23)c1 [Compound 86, 3-(1-naphthylmethoxy)-4′-(piperidinomethyl)benzanilide]
10 | 184 to 186 | CCCOc1ccccc1CCCOc1ccc2c(c1)C=C(C(=O)Nc1ccc(CN(C)C3CCOCC3)cc1)CCS2(=O)=O [Compound 119, N-[4-[[N-methyl-N-(tetrahydropyran-4-yl)amino]methyl]phenyl]-7-[3-(2-propoxyphenyl)propoxy]-1,1-dioxo-2,3-dihydro-1-benzothiepine-4-carboxamide]
11 | 146 to 147 | CCCOCCOc1ccc(COc2ccc3c(c2)C=C(C(=O)Nc2ccc(CN(C)C4CCOCC4)cc2)CCS3(=O)=O)cc1OCC [Compound 110, 7-[[3-ethoxy-4-(2-propoxyethoxy)benzyl]oxy]-N-[4-[[N-methyl-N-(tetrahydropyran-4-yl)amino]methyl]phenyl]-1,1-dioxo-2,3-dihydro-1-benzothiepine-4-carboxamide]
12 | 189 to 192 | Cc1ccc(COc2cccc(/C=C/c3ccc(C[N+]4(C)CCCCC4)cc3)c2)cc1.[I-] [Compound 98, (E)-1-methyl-1-[4-[3-(4-methylbenzyloxy)styryl]benzyl]piperidinium iodide]
